Results on four molecules are retold here after ChEMBL document CHEMBL3817740, “Recent developments in SAR visualization” (Medchemcomm, 2016).

In the experiment the target is Histamine H4 receptor (Homo sapiens, UniProt Q9H3N8). The experiment is described as follows: Inhibition of histamine H4 receptor (unknown origin).
Histamine H4 receptor, sequence (Q9H3N8 whole entry): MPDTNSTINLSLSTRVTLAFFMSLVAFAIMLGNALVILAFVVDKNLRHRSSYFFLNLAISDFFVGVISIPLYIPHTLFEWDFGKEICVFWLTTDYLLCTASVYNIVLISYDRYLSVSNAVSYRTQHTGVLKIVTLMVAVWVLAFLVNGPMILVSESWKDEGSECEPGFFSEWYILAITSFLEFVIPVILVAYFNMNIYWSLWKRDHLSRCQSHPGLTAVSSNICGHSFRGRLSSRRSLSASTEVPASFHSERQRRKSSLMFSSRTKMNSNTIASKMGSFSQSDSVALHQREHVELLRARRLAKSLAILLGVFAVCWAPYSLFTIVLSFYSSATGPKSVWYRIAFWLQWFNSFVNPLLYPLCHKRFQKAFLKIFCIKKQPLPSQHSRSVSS
As to `CN[C@H]1CCN(c2nc(N)nc3c2oc2ccc(C(C)(F)F)cc23)C1`, the affinity, expressed as Ki, was 1 nM.
As to `CN[C@H]1CCN(c2nc(N)nc3c2CCC3)C1`, affinity was put at a Ki of 158 nM.
The same measure for `CN[C@H]1CCN(c2nc(N)nc3c2oc2ccccc23)C1`: 3.39 nM; for `CN[C@H]1CCN(c2nc(N)nc(C)c2C)C1`: 355 nM.
